These results are taken from US20120283096A1, “AGENT FOR IMPROVING PLANT GROWTH, SEEDS, AND METHOD FOR IMPROVING PLANT GROWTH” (Incorporated Administrative Agency National Agricu lture …, priority 2010, published 2012).

Data set [1] has as its system decay of paddy seeds. The experiment in a line: Decay-inhibiting effect in tank farming without soil (Example 3). The note with it: for Soaking: Inhibition of decay, Concentration of Molybdenum in Solution: paddy seeds left soaked two weeks in the solution at 30° C., no soil, water did not rot, no rotten smell; for Ten-minute soaking: Inhibition of decay, Concentration of Molybdenum in Solution: seeds soaked ten minutes in the solution, then two weeks in water at 30° C.; for Inhibition of decay, Amount of molybdenum or tungsten added to seed: seeds covered with substance, soaked two weeks in water at 30° C. The method, then:
(§1) The decay-inhibiting effect of molybdenum-containing substances in tank farming without soil was examined.
(§2) The possibility of growth and the inhibition of decay were determined in the same manner as above.

Data set [2] has as its system paddy seeds. Briefly: Possibility of growth of paddy seeds in tank farming without soil (Example 3). As to the method:
as §1, §2

The conditions of data set [3]: in water, powder, cited from earlier work.
The subject of data set [4] is paddy rice. The experiment in a line: Seedling establishment of coated paddy seeds in submerged soil containers (Examples 4-1 to 4-4b, FIGS. 11, 14-19c). The class given is in vivo. The note with it: dry seeds, 25 wt % calcium peroxide alone at 0.1 or less time the weight of dry seed, 30° C., FIG. 19c. As to the method:
The germinated paddy seeds were soaked for one minute in a tenfold diluted solution of a commercially available laundry starch (manufactured by Rocket Soap Co., Ltd.; My Laundry Starch) containing approximately a little less than 10% by weight of polyvinyl alcohol, centrifuged at 1000 rpm for removal of the extra solution, and, immediately after that, lightly covered with different amounts of ammonium molybdophosphate, whereby seeds with different amounts of ammonium molybdophosphate were prepared.
It should also be noted that in each of FIGS. 14 through 15b, the horizontal axis represents the number of moles (mmol) of molybdenum or tungsten that adhered per gram of dry seed. In each of FIGS. 14 through 15b, the dots correspond to the numbers of moles of 0, 0.02, 0.05, 0.1, 0.2, 0.5, 1, and 2 mmol, starting from the left.
It should be noted that in each of FIGS. 16 through 18, the horizontal axis represents the number of moles (mmol) of molybdenum that adhered per gram of dry seed. In each of FIGS. 16 through 18, the dots correspond to the numbers of moles of 0, 0.02, 0.05, 0.1, 0.2, 0.5, 1, and 2 mmol, starting from the left.
It should be noted that in FIG. 19a, the horizontal axis represents the number of moles (mmol) of molybdenum that adhered per gram of dry seed. In FIG. 19a, the dots correspond to the numbers of moles of 0, 0.02, 0.05, 0.1, 0.2, 0.5, 1, and 2 mmol, starting from the left.
The resulting seeds were allowed to spend time in a sufficiently wet condition so that the iron rusted, and then allowed to further spend overnight. […] Six containers were allotted for each condition, and the proportion of seedling establishment and the standard error were examined. It should be noted that in FIG. 19b, the horizontal axis represents the number of moles (mmol) of molybdenum that adhered per gram of dry seed. In FIG. 19b, the dots correspond to the numbers of moles of 0, 0.02, 0.05, 0.1, 0.2, 0.5, 1, and 2 mmol, starting from the left.
Six containers were allotted for each condition, and the proportion of seedling establishment and the standard error were examined. It should be noted that in FIG. 19c, the horizontal axis represents the actual weight ratios of 25 wt % calcium peroxide that adhered with respect to the weight of dry seed. In FIG. 19c, the dots correspond to the actual weight ratios of 25 wt % calcium peroxide of 0, 0.01, 0.02, 0.05, 0.1, 0.2, 0.5, and 1 time, starting from the left.

Data set [5] has as its system paddy rice. Briefly: Seedling establishment of paddy seeds soaked in solutions of readily-soluble molybdenum substances (Example 2-2, FIGS. 8 and 13). The class given is in vivo. The method, then: The examination of the proportion of seedling establishment was carried out under the same conditions as the examination whose results are shown in FIG. 8, except for the molybdenum concentration and the duration of soaking.

Data set [6] concerns sulfide ions. Briefly: Inhibiting effect of molybdenum added to soil on sulfide ions (Example 1-3, FIG. 4). The note with it: supernatant after shaking soil, 30° C., two weeks after seeding. The method, then:
An inhibiting effect of a molybdenum-containing substance on sulfide ions was examined in relation to the degrees of generation of ferric sulfide in soil and the concentrations of molybdenum in soil solutions, and the results are shown in FIG. 4. The results shown in FIG. 4 were obtained from samples obtained in the same manner as in Example 1-2. Since methylene blue decolorizes in a reduced state, methylene blue weighing 0.1% of dry soil was added to each sample of soil so that a reduced state of the soil could be detected. The supernatant liquids obtained after shaking the samples of soil thus adjusted had molybdenum concentrations shown in FIG. 4.

For data set [7], the system named is sulfide ion generation. The experiment in a line: Inhibition of sulfide ion generation, paddy seeds covered with slightly-soluble substances (Example 2-3, FIG. 9). The note with it: approximately 0.1 mmol/g (per dry seeds) in terms of molybdenum or tungsten. An excerpt: The water on slightly germinated seeds was lightly wiped off, and immediately after that, the seeds were put with (lightly covered with) various amounts of the slightly-soluble substances shown in Table 1. […] The number of days for which sulfide ion generation was inhibited and the proportion of seedling establishment were examined.

Setting [8] is: paddy seeds left soaked two weeks in the solution at 30° C., no soil, concentration at which sheath leaf elongation was observed.
Where [9] appears, read: seeds soaked ten minutes in the solution, then two weeks in water at 30° C.
The mark [10] stands for this setting: seeds covered with substance, soaked two weeks in water at 30° C.
Where [11] appears, read: 3 M molybdenum solution, one-minute soaking, FIG. 13.

Where two headings read alike, the source gives them in different places. A value given as a limit tells only on which side of the number the result lay.

As for `O.O.[Na+].[Na+].[O]=[Mo](=[O])([O-])[O-]` [Sodium molybdate, Sodium molybdate dihydrate], in data set [1], the “Soaking: Inhibition of decay, Concentration of Molybdenum in Solution” value worked out at 0.1 M and the “Ten-minute soaking: Inhibition of decay, Concentration of Molybdenum in Solution” value (“Ten-minute soaking: Inhibition of decay” for short) amounted to 0.3 M. Further, the “Soaking: Possibility of growth, Concentration of Molybdenum in Solution” value in data set [2] (setting [8]) turned out to be 0.03 M. Besides, in data set [2] (setting [9]), the “Ten-minute soaking: Possibility of growth, Concentration of Molybdenum in Solution” value is reported as 1< M. The Water solubility result in data set [3] (dihydrate) is given as “Readily soluble”. In addition, the Water solubility result in data set [3] (listed as sodium molybdate, dihydrate) is “readily soluble”.

As for Ammonium molybdate tetrahydrate, in data set [1], the “Soaking: Inhibition of decay, Concentration of Molybdenum in Solution” value is given as less than 0.02 M and the “Ten-minute soaking: Inhibition of decay” value is on record as 0.1 M.

In the case of `[Ca+2].[O-][O-]` [calcium peroxide, reference compound], the “proportion of seedling establishment” value in data set [4] was not above 20%.

For “Ammonium phosphotungstate trihydrate [Ammonium tungstophosphate]”, the “Inhibition of decay, Amount of molybdenum or tungsten added to seed” value (from here on “Inhibition of decay, Amount … to seed”) in data set [1] is 1< mmol g^−1. The molecule further had a Possibility of growth, Amount of molybdenum or tungsten added to seed in data set [2] (in vivo) of more than 1 mmol/g.

On to `[Ca+2].[O]=[Mo](=[O])([O-])[O-]` [Calcium molybdate], for which the “Inhibition of decay, Amount … to seed” value in data set [1] turned out to be 0.3 mmol/g. In addition, the “Possibility of growth, Amount of molybdenum or tungsten added to seed” value in data set [2] (setting [10]) came to 1 mmol/g.

Regarding `[O]=[W](=[O])([OH])[OH]` [Tungstic acid], the “Inhibition of decay, Amount … to seed” value in data set [1] is 1< mmol g^−1. The Possibility of growth, Amount of molybdenum or tungsten added to seed in data set [2] (in vivo) is more than 1 mmol/g. In addition, the Water solubility entry in data set [3] is listed as “Slightly soluble (has a percentage of solubility of 10% by weight or lower with respect to water)”.

Take “Silicomolybdic acid n-hydrate [Molybdosilicic acid]”: in data set [5] (setting [11]), the “proportion of seedling establishment” value is recorded as “improvement in proportion of seedling establishment”. For the same molecule, the Water solubility entry in data set [3] is “Readily soluble”; in data set [3] (listed as molybdosilicic acid), “readily soluble”.

“Potassium phosphomolybdate [Potassium molybdophosphate]”: the values for the Water solubility entry in data set [3] and in data set [3] (listed as potassium molybdophosphate) were “Slightly soluble (has a percentage of solubility of 10% by weight or lower with respect to water)” and “slightly soluble”, respectively.

Turning to `[Mg+2].[O]=[Mo](=[O])([O-])[O-]` [Magnesium molybdate], the Water solubility entry in data set [3] is “Slightly soluble (has a percentage of solubility of 10% by weight or lower with respect to water)”; in data set [3] (listed as magnesium molybdate), “slightly soluble”.

For the molecule “12-moblybdo(VI)phosphoric acid n-hydrate [Molybdophosphoric acid]”, in data set [1], the “Soaking: Inhibition of decay, Concentration of Molybdenum in Solution” value is given as less than 0.02 M and the “Ten-minute soaking: Inhibition of decay” value is on record as 0.1 M. For the same molecule, the “proportion of seedling establishment” value in data set [5] (setting [11]) is reported as “improvement in proportion of seedling establishment”.

For the molecule `[H+].[H+].[NH4+].[NH4+].[NH4+].[NH4+].[NH4+].[NH4+].[NH4+].[NH4+].[NH4+].[NH4+].[O]=[W](=[O])([O-])[O-].[O]=[W](=[O])([O-])[O-].[O]=[W](=[O])([O-])[O-].[O]=[W](=[O])([O-])[O-].[O]=[W](=[O])([O-])[O-].[O]=[W](=[O])([O-])[O-].[O]=[W](=[O])=[O].[O]=[W](=[O])=[O].[O]=[W](=[O])=[O].[O]=[W](=[O])=[O].[O]=[W](=[O])=[O].[O]=[W](=[O])=[O]` [Ammonium paratungstate, Ammonium tungstate parapentahydrate], the “Inhibition of decay, Amount … to seed” value in data set [1] was less than 0.3 mmol/g. The “Possibility of growth, Amount of molybdenum or tungsten added to seed” value in data set [2] (setting [10]) was 0.3 mmol/g. The Water solubility result in data set [3] is listed as “Slightly soluble (has a percentage of solubility of 10% by weight or lower with respect to water)”.

Turning to “Sodium phosphomolybdate n-hydrate [Sodium molybdophosphate]”, in data set [1], the “Soaking: Inhibition of decay, Concentration of Molybdenum in Solution” value is on record as less than 0.02 M and the “Ten-minute soaking: Inhibition of decay” value was found to be 0.1 M. In data set [2] (in vivo), the “Soaking: Possibility of growth, Concentration of Molybdenum in Solution” value is given as less than 0.02 M and the Ten-minute soaking: Possibility of growth, Concentration of Molybdenum in Solution is more than 1 M. Further, the “molybdenum concentration of the soaking solution at which proportion of seedling establishment improved” value in data set [5] (ten-minute soaking, FIG. 8) is “approximately 1 M”. Besides, in data set [5] (ten-minute soaking, soaking solution 2 M molybdenum), the “proportion of seedling establishment” value was “decrease in proportion of seedling establishment”. Moreover, the Water solubility result in data set [3] is recorded as “Readily soluble”. Also, the Water solubility result in data set [3] (listed as sodium molybdophosphate) was “readily soluble”.

For the molecule `[K+].[K+].[O]=[Mo](=[O])([O-])[O-]` [Potassium molybdate], in data set [1], the “Soaking: Inhibition of decay, Concentration of Molybdenum in Solution” value came to 0.3 M and the “Ten-minute soaking: Inhibition of decay” value stood at 0.5 M. For the same molecule, in data set [2] (setting [8]), the “Soaking: Possibility of growth, Concentration of Molybdenum in Solution” value is 0.02 M. Moreover, the “Ten-minute soaking: Possibility of growth, Concentration of Molybdenum in Solution” value in data set [2] (setting [9]) is reported as 1< M. Moreover, in data set [6], the “molybdenum concentration at which sulfide ions were effectively inhibited” value was not below 0.2 mM and the “molybdenum concentration up to which black circles were observed in the soil” value was not above 0.06 mM. Besides, in data set [3], the Water solubility entry is on record as “Readily soluble”. In data set [3] (listed as potassium molybdate), the Water solubility result is listed as “readily soluble”.

With `[O]=[Mo](=[O])([OH])[OH]` [Molybdic acid], the “Inhibition of decay, Amount … to seed” value in data set [1] was less than 0.02 mmol/g. In addition, the Possibility of growth, Amount of molybdenum or tungsten added to seed in data set [2] (in vivo) was more than 2 mmol/g. The “number of days for which sulfide ion generation was inhibited” value in data set [7] is recorded as “fourteen”. Further, the Water solubility result is given as “Slightly soluble (has a percentage of solubility of 10% by weight or lower with respect to water)” in data set [3] and “slightly soluble” in data set [3] (listed as molybdic acid).

On to `[O]=[W](=[O])=[O]` [Tungsten oxide, Tungsten oxide (VI)], for which the “Inhibition of decay, Amount … to seed” value in data set [1] is 1< mmol g^−1. The same molecule gave a Possibility of growth, Amount of molybdenum or tungsten added to seed in data set [2] (in vivo) of more than 1 mmol/g. Besides, the “number of days for which sulfide ion generation was inhibited” value in data set [7] is on record as “fourteen”. Further, the Water solubility result in data set [3] is given as “Slightly soluble (has a percentage of solubility of 10% by weight or lower with respect to water)”.
